Data taken from patent US6737383B1, “Herbicidal oxadiazolidines” (priority 1999, dated 2004).

Assays:
wheat = assay: Test B pre/postemergence wheat; format: in vivo, Triticum aestivum
Outline: (§1)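 Response is a visual 0-to-10 score relative to untreated plants, where 0 means no effect and 10 means complete control, taken twelve to sixteen days after application. Treatments went onto soil at planting and onto foliage of 1- to 4-leaf plants, using a surfactant-containing non-phytotoxic solvent.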

bedstraw = assay: Test B pre/postemergence bedstraw; format: in vivo, Galium aparine
Outline: as §1

sugar beet = assay: Test B pre/postemergence sugar beet; format: in vivo, Beta vulgaris
Outline: as §1

crabgrass = assay: Test B pre/postemergence crabgrass; format: in vivo, Digitaria sanguinalis
Outline: as §1

corn = assay: Test B pre/postemergence corn; format: in vivo, Zea mays
Outline: as §1

rape = assay: Test B pre/postemergence rape; format: in vivo, Brassica napus
Outline: as §1

purple nutsedge = assay: Test B pre/postemergence purple nutsedge; format: in vivo, Cyperus rotundus
Outline: as §1

surinam grass = assay: Test B pre/postemergence surinam grass; format: in vivo, Brachiaria decumbens
Outline: as §1

pigweed = assay: Test B pre/postemergence pigweed; format: in vivo, Amaranthus retroflexus
Outline: as §1

velvetleaf = assay: Test B pre/postemergence velvetleaf; format: in vivo, Abutilon theophrasti
Outline: as §1

morningglory = assay: Test B pre/postemergence morningglory; format: in vivo, Ipomoea hederacea
Outline: as §1

blackgrass = assay: Test B pre/postemergence blackgrass; format: in vivo, Alopecurus myosuroides
Outline: as §1

wild oat = assay: Test B pre/postemergence wild oat; format: in vivo, Avena fatua
Outline: as §1

soybean = assay: Test B pre/postemergence soybean; format: in vivo, Glycine max
Outline: as §1

giant foxtail = assay: Test B pre/postemergence giant foxtail; format: in vivo, Setaria faberii
Outline: as §1

cocklebur = assay: Test B pre/postemergence cocklebur; format: in vivo, Xanthium strumarium
Outline: as §1

[1] = Postemergence, Rate 62 g/ha, scale of 0 to 10, 0 is no effect, 10 is complete control
[2] = Postemergence, Rate 125 g/ha, scale 0 to 10, 0 is no effect, 10 is complete control
[3] = Postemergence, Rate 500 g/ha, scale 0 to 10, 0 is no effect, 10 is complete control
[4] = Preemergence, Rate 62 g/ha, scale 0 to 10 (0 no effect, 10 complete control)
[5] = Preemergence, Rate 125 g/ha, scale 0 to 10, 0 is no effect, 10 is complete control
[6] = Preemergence, Rate 500 g/ha, scale of 0 to 10 where 0 is no effect and 10 is complete control
[7] = Rate 250 g/ha, Postemergence, scale of 0 to 10 where 0 is no effect and 10 is complete control

Compound: CCOC(=O)C=C(Cn1c(=O)on(C(=O)N(c2ccc(Cl)cc2)C(C)C)c1=O)OCC [Compound 549]
- Wheat plant response rating (wheat; [1]): 0
- Wheat plant response rating (wheat; [2]): 0
- Plant response rating, Wheat (wheat; [3]): 2
- Wheat plant response rating (wheat; [4]): 0
- Wheat plant response rating (wheat; [5]): 0
- Wheat plant response rating (wheat; [6]): 0
- Plant response rating, Wheat (wheat; [7]): 0
- Bedstraw plant response rating (bedstraw; [1]): 0
- Bedstraw plant response rating (bedstraw; [2]): 0
- Plant response rating, Bedstraw (bedstraw; [3]): 8
- Bedstraw plant response rating (bedstraw; [4]): 0
- Bedstraw plant response rating (bedstraw; [5]): 0
- Bedstraw plant response rating (0 to 10 scale) (bedstraw; Preemergence, Rate 250 g/ha): 5
- Bedstraw plant response rating (bedstraw; [6]): 5
- Plant response rating, Bedstraw (bedstraw; [7]): 0
- Sugarbeets plant response rating (sugar beet; [1]): 0
- Sugarbeets plant response rating (sugar beet; [2]): 0
- Plant response rating, Sugarbeets (sugar beet; [3]): 4
- Sugarbeets plant response rating (sugar beet; [4]): 0
- Sugarbeets plant response rating (sugar beet; [5]): 0
- Sugarbeets plant response rating (0 to 10 scale) (sugar beet; Preemergence, Rate 250 g/ha): 0
- Sugarbeets plant response rating (sugar beet; [6]): 3
- Plant response rating, Sugarbeets (sugar beet; [7]): 0
- Crabgrass plant response rating (crabgrass; [1]): 2
- Crabgrass plant response rating (crabgrass; [2]): 3
- Plant response rating, Crabgrass (crabgrass; [3]): 9
- Crabgrass plant response rating (crabgrass; [4]): 3
- Crabgrass plant response rating (crabgrass; [5]): 7
- Crabgrass plant response rating (0 to 10 scale) (crabgrass; Preemergence, Rate 250 g/ha): 10
- Crabgrass plant response rating (crabgrass; [6]): 10
- Plant response rating, Crabgrass (crabgrass; [7]): 6
- Corn plant response rating (corn; [1]): 0
- Corn plant response rating (corn; [2]): 0
- Plant response rating, Corn (corn; [3]): 0
- Corn plant response rating (corn; [4]): 0
- Corn plant response rating (corn; [5]): 0
- Corn plant response rating (0 to 10 scale) (corn; Preemergence, Rate 250 g/ha): 0
- Corn plant response rating (corn; [6]): 0
- Plant response rating, Corn (corn; [7]): 0
- Rape plant response rating (rape; [1]): 0
- Rape plant response rating (rape; [2]): 0
- Plant response rating, Rape (rape; [3]): 7
- Rape plant response rating (rape; [4]): 0
- Rape plant response rating (rape; [5]): 0
- Rape plant response rating (0 to 10 scale) (rape; Preemergence, Rate 250 g/ha): 0
- Rape plant response rating (rape; [6]): 0
- Plant response rating, Rape (rape; [7]): 5
- Nutsedge plant response rating (purple nutsedge; [2]): 0
- Plant response rating, Nutsedge (purple nutsedge; [3]): 0
- Nutsedge plant response rating (purple nutsedge; [5]): 0
- Nutsedge plant response rating (0 to 10 scale) (purple nutsedge; Preemergence, Rate 250 g/ha): 0
- Nutsedge plant response rating (purple nutsedge; [6]): 0
- B. signalgrass plant response rating (surinam grass; [1]): 0
- B. signalgrass plant response rating (surinam grass; [2]): 0
- Plant response rating, B. signalgrass (surinam grass; [3]): 3
- B. signalgrass plant response rating (surinam grass; [4]): 0
- B. signalgrass plant response rating (surinam grass; [5]): 0
- B. signalgrass plant response rating (0 to 10 scale, 0 is no effect, 10 is complete control) (surinam grass; Preemergence, Rate 250 g/ha): 0
- B. signalgrass plant response rating (surinam grass; [6]): 0
- Plant response rating, B. signalgrass (surinam grass; [7]): 0
- Redroot pigweed plant response rating (pigweed; [1]): 0
- Redroot pigweed plant response rating (pigweed; [2]): 0
- Plant response rating, Redroot pigweed (pigweed; [3]): 8
- Redroot pigweed plant response rating (pigweed; [4]): 6
- Redroot pigweed plant response rating (pigweed; [5]): 6
- Plant response rating, Redroot pigweed (pigweed; [7]): 0
- Velvetleaf plant response rating (velvetleaf; [2]): 0
- Plant response rating, Velvetleaf (velvetleaf; [3]): 4
- Velvetleaf plant response rating (velvetleaf; [4]): 0
- Velvetleaf plant response rating (velvetleaf; [5]): 0
- Velvetleaf plant response rating (0 to 10 scale) (velvetleaf; Preemergence, Rate 250 g/ha): 0
- Velvetleaf plant response rating (velvetleaf; [6]): 0
- Plant response rating, Velvetleaf (velvetleaf; [7]): 4
- Morningglory plant response rating (morningglory; [1]): 4
- Morningglory plant response rating (morningglory; [2]): 4
- Plant response rating, Morningglory (morningglory; [3]): 4
- Morningglory plant response rating (morningglory; [4]): 0
- Morningglory plant response rating (morningglory; [5]): 0
- Morningglory plant response rating (0 to 10 scale) (morningglory; Preemergence, Rate 250 g/ha): 0
- Morningglory plant response rating (morningglory; [6]): 0
- Plant response rating, Morningglory (morningglory; [7]): 4
- Blackgrass plant response rating (blackgrass; [1]): 0
- Blackgrass plant response rating (blackgrass; [2]): 0
- Plant response rating, Blackgrass (blackgrass; [3]): 3
- Blackgrass plant response rating (blackgrass; [4]): 0
- Blackgrass plant response rating (blackgrass; [5]): 4
- Blackgrass plant response rating (0 to 10 scale) (blackgrass; Preemergence, Rate 250 g/ha): 6
- Plant response rating, Blackgrass (blackgrass; [7]): 2
- Wild oats plant response rating (wild oat; [1]): 0
- Wild oats plant response rating (wild oat; [2]): 0
- Plant response rating, Wild oats (wild oat; [3]): 2
- Wild oats plant response rating (wild oat; [4]): 0
- Wild oats plant response rating (wild oat; [5]): 0
- Wild oats plant response rating (0 to 10 scale) (wild oat; Preemergence, Rate 250 g/ha): 0
- Wild oats plant response rating (wild oat; [6]): 3
- Plant response rating, Wild oats (wild oat; [7]): 0
- Soybean plant response rating (soybean; [1]): 2
- Soybean plant response rating (soybean; [2]): 2
- Plant response rating, Soybean (soybean; [3]): 3
- Soybean plant response rating (soybean; [4]): 0
- Soybean plant response rating (soybean; [5]): 0
- Soybean plant response rating (0 to 10 scale) (soybean; Preemergence, Rate 250 g/ha): 0
- Soybean plant response rating (soybean; [6]): 0
- Plant response rating, Soybean (soybean; [7]): 2
- Giant foxtail plant response rating (giant foxtail; [1]): 2
- Giant foxtail plant response rating (giant foxtail; [2]): 2
- Plant response rating, Giant foxtail (giant foxtail; [3]): 7
- Giant foxtail plant response rating (giant foxtail; [4]): 9
- Giant foxtail plant response rating (giant foxtail; [5]): 10
- Giant foxtail plant response rating (0 to 10 scale) (giant foxtail; Preemergence, Rate 250 g/ha): 10
- Giant foxtail plant response rating (giant foxtail; [6]): 10
- Plant response rating, Giant foxtail (giant foxtail; [7]): 2
- Cocklebur plant response rating (cocklebur; [1]): 0
- Cocklebur plant response rating (cocklebur; [2]): 0
- Plant response rating, Cocklebur (cocklebur; [3]): 4
- Cocklebur plant response rating (cocklebur; [4]): 0
- Cocklebur plant response rating (cocklebur; [5]): 0
- Cocklebur plant response rating (0 to 10 scale) (cocklebur; Preemergence, Rate 250 g/ha): 0
- Cocklebur plant response rating (cocklebur; [6]): 0
- Plant response rating, Cocklebur (cocklebur; [7]): 0
